Source: patent US11173196B2, “Vectors for expression of prostate-associated antigens” (Pfizer Inc., priority 2013, dated 2021)
Read-outs that look alike come from different tables or passages of the source.

Experiments:
[1] = cited from earlier work
rhesus PSMA = experiment: IFNγ ELISPOT from PBMCs, rhesus PSMA adenovirus vaccine with subcutaneous anti-CTLA-4 antibody; assay type: in vivo, Indian rhesus macaques
Experimental: Animal Treatment and Sample Collection. Five groups of male Indian rhesus macaques, seven (#1 to 7) per each test group, were immunized with an adenovirus encoding a rhesus PSMA modified polypeptide delivered by bilateral intramuscular injections (2× 5e10 V.P.). Immediately following the adenovirus injections, group 1 received vehicle, and groups 2 to 4 received bilateral subcutaneous injections of anti-CTLA-4 antibody (CP-675, 206) at doses 2× 25 mg, 2× 16.7 mg and 2× 8.4 mg respectively in proximity to the vaccine draining lymph node.
Nine days after the immunization, peripheral blood mononuclear cells (PBMCs) were isolated from each animal and were subjected to an IFNγ ELISPOT assay to measure the rhesus PSMA specific T cell responses. Briefly, 4e5 PBMCs from individual animals were plated per well with pools of rhesus PSMA specific peptides (P1, P2, P3 or R1+R2 defined in Table 24A) or nonspecific control peptides (human HER2 peptide pool) each at 2 ug/ml in IFN[…] ELISPOT plates. The plates were incubated for 16 hrs at 37° C. and 5% CO2 and washed and developed after incubation as per manufacturer's instruction. The number of IFNγ spot forming cells (SFC) was counted by CTL reader. Each condition was performed in duplicates. The average of the duplicates from the background adjusted SFC of the rhesus PSMA specific peptide pools was normalized to the response in 1e6 PBMCs.
IFNγ ELISPOT Assay Procedure. A capture antibody specific to IFNγ ([…]BD Bioscience, #51-2525kc) is coated onto a polyvinylidene fluoride (PVDF) membrane in a microplate overnight at 4° C. The plate is blocked with serum/protein to prevent nonspecific binding to the antibody. After blocking, effector cells (such as splenocytes isolated from immunized mice or PBMCs isolated from rhesus macaques) and targets (such as PSMA peptides from peptide library, target cells pulsed with antigen specific peptides or tumor cells expressing the relevant antigens) are added to the wells and incubated overnight at 37° C. in a 5% CO2 incubator. […]

[2] = cited from earlier work; remark: listed apart in the source
293 cells = experiment: Expression of PSMA constructs in mammalian 293 cells by FACS; assay type: cell-based
Experimental: The expression of the PSMA cytosolic, secreted, and modified antigens was determined by FACS. Mammalian 293 cells were transfected with the PJV7563 PMED vectors encoding the various immunogenic PSMA polypeptides. Three days later, the 293 cells were stained with mouse anti-PSMA antibody, followed with a fluorescent conjugated (FITC) rat anti-mouse secondary antibody.

5′ TCGTCGTTTTGTCGTTTTGTCGTT3′ [CpG7909]
dose limiting toxicity ([1]; single dose subcutaneous): myalgia and constitutional effects
maximum tolerated dose (MTD) ([1]; single dose subcutaneous): 0.45 mg/kg
dose well tolerated with no clinical effects and no significant toxicity ([1]; single intravenous dose): up to 1.05 mg/kg

CP-675,206: fully human IgG2 anti-CTLA-4 monoclonal antibody, CAS 745013-59-6
vaccine induced immune response compared to vaccine alone (rhesus PSMA; 16.7 mg subcutaneous (group 4), P=0.05): significantly enhanced
vaccine induced immune response compared to vaccine alone (rhesus PSMA; 33.4 mg subcutaneous (group 3), P=0.004): significantly enhanced
vaccine induced immune response compared to vaccine alone (rhesus PSMA; dose of 50 mg subcutaneous (group 2), P=0.001 by Student's T-test): significantly enhanced

CP-870893: fully human agonistic CD40 monoclonal antibody, heavy and light chain SEQ ID NO: 40 and 41
dose-limiting toxicities ([2]; human, in vivo, iv): grade 3 CRS and grade 3 urticaria
maximum tolerated dose (MTD) ([2]; phase I clinical study, intravenous infusion): 0.2 mg/kg

human PSMA modified antigen (SEQ ID NO: 9): immunogenic polypeptide of amino acids 15-750 of human PSMA, membrane-bound, expressed from DNA construct in PJV7563 vector
Average mean fluorescent intensity (293 cells; 293 cells transfected with PJV7563 vector, stained three days later with mouse anti-PSMA antibody): 12270
expression on the cell surface (293 cells; transfected 293 cells, FACS): expressed on the cell surface
